According to patent US11639912B2, “Sensor and concentration measurement method” (PHC Holdings Corporation, priority 2009, dated 2023):
Values after ≈ are worked out from the molar mass of the structure shown. Where two headings read alike, the source gives them in different places.

Key:
[1] = Redox / oxidation potentials stated in the description without method; type: physicochemical; settings: no method given
[2] = Solubility of mediator in water, evaluated visually; type: physicochemical; settings: for solubility: thermodynamic from solid, Table 1, water at 25° C., evaluated visually
Procedure: Potassium ferricyanide, 9,10-phenanthrenequinone, and sodium 9,10-phenanthrene-quinone-2-sulfonate were weighed out, and water was added to them. The solubility in water at 25° C. was evaluated visually.

[3] = background statement, cited from earlier work
[4] = Redox potential by cyclic voltammetry (glassy carbon working electrode, Ag|AgCl reference); type: physicochemical; settings: for Eox (V), potential value at the peak oxidation current / Ered (V), potential value at the peak reduction current: 1 mM in 100 mM phosphate buffer pH 7, sweep 0.1 V/second; for E0′ (V) [(Ered + Eox)/2], redox potential: average of Ered and Eox
Procedure: Potassium ferricyanide and sodium 9,10-phenanthrenequinone-2-sulfonate were each dissolved in an amount of 1 mM in a 100 mM phosphate buffer (pH 7), to prepare a potassium ferricyanide aqueous solution and a sodium 9,10-phenanthrenequinone-2-sulfonate aqueous solution.
These aqueous solutions were used to measure the redox potential by cyclic voltammetry for potassium ferricyanide and sodium 9,10-phenanthrenequinone-2-sulfonate. More specifically, the electrodes used here were as follows. • working electrode: glassy carbon electrode • counter electrode: platinum wire • reference electrode: silver/silver chloride (saturated potassium chloride) electrode (hereinafter referred to as Ag|AgCl).
A potentiostat was used for measurement. The various electrodes and the potentiostat were types commonly used in electrochemistry. This equipment can be purchased from BAS, for example.
The cyclic voltammetry involved searching for the potential applied to the working electrode, linearly with respect to time. The sweep rate was set to 0.1 V/second. First, a first potential was applied to the working electrode, and the electrode potential was swept to the negative side from the starting potential to a second potential that was more negative. Then, sweep was performed in which the electrode potential was flipped back to the positive side from the second potential to the first potential.
The first and second potentials were 0.7 V and −0.3 V, respectively, in the case of potassium ferricyanide, and were 0.2 V and −0.5 V in the case of sodium 9,10-phenanthrenequinone-2-sulfonate.
The potential discussed next is the potential with respect to Ag|AgCl.
If we calculate the redox potential as the average value [(Ered+Eox)/2] of the potential value at the peak oxidation current (Eox) and the potential value at the peak reduction current (Ered), the redox potential for the sodium 9,10-phenanthrenequinone-2-sulfonate is −150 mV and the redox potential for potassium ferricyanide is 225 mV. Thus, the redox potential for sodium 9,10-phenanthrenequinone-2-sulfonate measured using Ag|AgCl as a reference electrode was negative.
Also, compounds A, B, H′, I, I′, and J and disodium 9,10-phenanthrenequinone-2,7-disulfonate were subjected to cyclic voltammetry by the same operation as in FIG. 4. […]

[5] = FIG. 4, vs Ag|AgCl, 100 mM phosphate buffer pH 7

SMILES	Solubility in water ([2]; Table 2)	Eox (V), potential value at the peak oxidation current ([4]; vs Ag|AgCl) [V]	Ered (V), potential value at the peak reduction current ([4]; vs Ag|AgCl) [V]	E0′ (V) [(Ered + Eox)/2], redox potential ([4]; vs Ag|AgCl) [V]	further results
O=C1C=C(S(=O)(=O)O)c2ccccc2C1=O [1,2-naphthoquinone-4-sulfonic acid]					redox potential of mediators pertaining to the invention [1]: −16 mV
O=C1C(=O)c2cc(S(=O)(=O)O)ccc2-c2ccccc21 [9,10-phenanthrenequinone-2-sulfonic acid]					redox potential of mediators pertaining to the invention [1]: −140 mV
O=C1C(=O)c2ccccc2-c2ccccc21 [9,10-phenanthrenequinone]					solubility [2]: < 1 mM; redox potential of mediators pertaining to the invention [1]: −180 mV
Cc1cc2nc3c(=O)[nH]c(=O)nc-3n(C[C@H](O)[C@H](O)[C@H](O)COP(=O)(O)OP(=O)(O)OC[C@H]3O[C@@H](n4cnc5c(N)ncnc54)[C@H](O)[C@@H]3O)c2cc1C [FAD, flavin adenine dinucleotide]					redox potential of coenzymes and prior-art mediator [3]: approximately −300 mV
O=C(O)c1cc(C(=O)O)c2c(n1)C(=O)C(=O)c1cc(C(=O)O)[nH]c1-2 [PQQ, pyrroloquinoline quinone]					redox potential of coenzymes and prior-art mediator [3]: approximately −200 mV
O=C1O[C@H]([C@@H](O)CO)C(O)=C1O [ascorbic acid]					oxidation potential ([3]; vs. Ag|AgCl): approximately −140 mV
O=C1C(=O)c2cc([N+](=O)[O-])ccc2-c2ccccc21 [compound A]	1 mM (≈ 253 µg/mL)	−0.10	−0.13	−0.12	
Nc1ccc2c(c1)C(=O)C(=O)c1ccccc1-2 [compound B]		−0.19	−0.23	−0.21	Solubility in water [2]: 1 mM (≈ 223 µg/mL)
O=C1C(=O)c2cc(-c3ccc(S(=O)(=O)[O-])cc3)ccc2-c2ccccc21.[Na+] [compound H′]	20 mM	−0.14	−0.21	−0.18	
O=C([O-])c1ccc(-c2ccc3c(c2)C(=O)C(=O)c2ccccc2-3)cc1.[Na+] [compound I]	5 mM	−0.14	−0.22	−0.18	
O=C(NCCS(=O)(=O)[O-])c1ccc(-c2ccc3c(c2)C(=O)C(=O)c2ccccc2-3)cc1.[Na+] [compound I′]	20 mM	−0.14	−0.22	−0.18	
O=C([O-])c1cc(C(=O)[O-])cc(-c2ccc3c(c2)C(=O)C(=O)c2ccccc2-3)c1.[Na+].[Na+] [compound J]	50 mM	−0.15	−0.23	−0.19	
O=C1C(=O)c2cc(S(=O)(=O)[O-])ccc2-c2ccc(S(=O)(=O)[O-])cc21.[Na+].[Na+] [disodium 9,10-phenanthrenequinone-2,7-disulfonate]	over 200 mM	−0.06	−0.18	−0.12	
O=C1C(=O)c2cccnc2-c2ncccc21 [phenanthroline quinone]					redox potential of coenzymes and prior-art mediator [3]: approximately 0 mV
O=C1C(=O)c2cc(S(=O)(=O)[O-])ccc2-c2ccccc21.[Na+] [sodium 9,10-phenanthrenequinone-2-sulfonate]		−0.12	−0.18	−0.15	Solubility in water (in words) [2]: good solubility; solubility [2]: > 80 mM; potential at the peak oxidation current [4, 5]: −120 mV; potential at the peak reduction current [4, 5]: −180 mV; redox reaction with a glassy carbon electrode ([4]; cyclic voltammetry): quickly and reversibly; redox potential lower than that of potassium ferricyanide ([4]; difference to potassium ferricyanide): about 400 mV; redox potential [(Ered+Eox)/2] ([4]; vs Ag|AgCl): −150 mV
